Measurements published in patent US20220307021A1, “A NEUROPILIN ANTAGONIST IN COMBINATION WITH A P38ALPHA-KINASE INHIBITOR FOR THE TREATMENT OF CANCER” (INSERM (Institut National de la santé et de la Recherche …, priority 2019, published 2022).

Columns and labels:
[1] = system: RSK-1/RSK-2, MSK-2, HSP-27, GSK-3, p70S6K; assay: Human phosphokinase proteome profiler array, MDA-MB-231: downstream kinase substrates; format: cell-based; conditions: MDA-MB-231, compound at IC50, 10 and 60 minutes
Protocol: (§1) MDA-MB-231 cells were incubated in the presence or absence of NRPa-47 or NRPa-48 compounds (IC50) and protein lysates were prepared and quantified as previously described. Biochemical signaling detection was evaluated by using human proteome profiler array (human phosphokinase array and human apoptosis array) according to the manufacturer's instructions (R&D systems, France). Briefly, capture and control antibodies were spotted in duplicate on nitrocellulose membranes. Cellular extracts were incubated overnight on membrane, washed to remove unbound proteins, followed by incubation with a cocktail of biotinylated detection antibodies. Streptavidin-HRP and chemiluminescent detection reagents were applied, and the signal intensity corresponding to the amount of protein bound was measured at each capture spot using ImageJ software.

MDA-MB-231 [2] = assay: Human apoptosis proteome profiler array, MDA-MB-231; format: cell-based; conditions: for HIF-1α expression: MDA-MB-231, compound at IC50
Protocol: as §1

HIF-1α mRNA = assay: RT-PCR of HIF-1α mRNA in MDA-MB-231; format: cell-based, human; conditions: MDA-MB-231, time dependent, maximum effect at 60 minutes
Protocol: (§2) MDA-MB-231 RNA was extracted with NucleoSpinRNA II kit (Macherey-Nagel, France) and quantified using Nanodrop (ND-1000 spectrophotometer). 1 μg of each RNA sample was reverse-transcripted into cDNA using iScript cDNA Synthesis Kit (Bio-Rad, France) following the manufacturer's instructions. PCR amplification was performed in reaction mixture (25 μL) containing 200 μM of each dNTP, 1 μg of cDNA, 1 μM of primers and 0.625 U of GoTaq DNA Polymerase (Promega, France) with 45 s of denaturation at 95° C., 45 s of annealing at 60° C. and 1 min of extension at 72° C. for 30 cycles. PCR products were separated by 1% agarose gel electrophoresis, stained with ethidium bromide (Sigma, Germany) and analyzed using Gel Doc 2000 System (Bio-Rad, France).

VEGF-A165/NRP-1 = target: T1, VEGF-A165/NRP-1 (Homo sapiens, UniProt O14786); conditions: previously described [15]; cited from earlier work
T1 sequence (O14786 22-856 limits assumed): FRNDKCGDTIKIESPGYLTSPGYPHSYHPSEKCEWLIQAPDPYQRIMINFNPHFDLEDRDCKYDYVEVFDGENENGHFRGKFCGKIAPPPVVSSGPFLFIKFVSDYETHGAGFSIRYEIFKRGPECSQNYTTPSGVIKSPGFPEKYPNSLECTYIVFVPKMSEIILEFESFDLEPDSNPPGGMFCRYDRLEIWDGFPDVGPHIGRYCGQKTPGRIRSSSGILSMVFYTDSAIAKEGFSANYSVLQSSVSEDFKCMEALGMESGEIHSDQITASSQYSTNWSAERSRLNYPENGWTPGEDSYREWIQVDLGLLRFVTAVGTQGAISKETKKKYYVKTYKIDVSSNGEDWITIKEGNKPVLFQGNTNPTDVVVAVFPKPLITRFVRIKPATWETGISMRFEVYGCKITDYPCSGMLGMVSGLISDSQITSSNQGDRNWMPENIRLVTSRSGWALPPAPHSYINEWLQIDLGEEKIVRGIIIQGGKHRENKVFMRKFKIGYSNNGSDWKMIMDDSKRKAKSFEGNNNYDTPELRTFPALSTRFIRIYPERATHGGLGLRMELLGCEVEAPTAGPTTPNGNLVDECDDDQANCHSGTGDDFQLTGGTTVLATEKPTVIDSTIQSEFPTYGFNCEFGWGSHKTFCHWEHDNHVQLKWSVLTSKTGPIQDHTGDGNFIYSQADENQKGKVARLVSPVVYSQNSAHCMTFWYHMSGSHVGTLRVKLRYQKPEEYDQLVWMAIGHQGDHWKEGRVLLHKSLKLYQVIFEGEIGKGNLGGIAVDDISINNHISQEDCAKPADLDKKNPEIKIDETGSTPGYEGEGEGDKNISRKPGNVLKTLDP

[3] = target: selected panel of 40 protein kinases; assay: Protein kinase profiling (Eurofins); format: biochemical; conditions: 1 μM of each NRPa, relative to DMSO control
Protocol: NRPa-47 and NRPa-48 specificity profiling assays were carried out at Eurofins Pharma Discovery Services (Dundee, UK) for Protein Kinase Profiling against a selected panel of 40 protein kinases. Results of protein kinases assayed at 1 μM of each NRPa are presented as a percentage of kinase activity in DMSO control reactions.

AKT-1/-2/-3/-pan = assay: Human phosphokinase proteome profiler array, MDA-MB-231; format: cell-based; conditions: MDA-MB-231, compound at IC50, 10 and 60 minutes
Protocol: as §1

p38β/p38γ/p38δ = assay: as above; format: cell-based; conditions: MDA-MB-231, compound at IC50, 10 and 60 minutes
Protocol: as §1

p38α = assay: as above; format: cell-based; conditions: MDA-MB-231, compound at IC50, 10 and 60 minutes
Protocol: as §1

ERK-1/-2 = assay: as above; format: cell-based; conditions: MDA-MB-231, compound at IC50, 10 and 60 minutes
Protocol: as §1

JNK-1/-2/-3/-pan = assay: as above; format: cell-based; conditions: MDA-MB-231, compound at IC50, 10 and 60 minutes
Protocol: as §1

VEGF-A165 mRNA = assay: RT-PCR of VEGF-A165 mRNA in MDA-MB-231; format: cell-based, human; conditions: MDA-MB-231, time dependent, maximum effect at 60 minutes
Protocol: as §2

MDA-MB-231 [4] = conditions: read-out: half maximal inhibitory anti-proliferative concentration (IC50); MDA-MB-231, previously reported; cited from earlier work
[5] = system: MDA-MB-231-xenografted NOG mice; assay: In vivo xenografted-tumor mouse model
Protocol: Protocol was approved by the INSERM Institutional Care and Use Committee according to the European Communities Council Directive. NOD/scid/IL-2Rγ−/− (NOG) female mice were bred and housed in pathogen-free conditions in accordance with the Federation of European Animal Associations (FELSA) guidelines. […]. […] Tumor growth and body weight were measured every three days during the treatment. Mice were weighed regularly to assess the toxicity of the treatment and the tumors were measured with calipers (width×width×length×Pi/6) to determine growth.

[6] = MDA-MB-231, compound at IC50, 60 minutes and 48 hours

Structure (SMILES) | GSK-3 phosphorylation [1] | HSP27 phosphorylation [1] | MSK2 phosphorylation [1] | RSK-1 phosphorylation [1] | RSK-2 phosphorylation [1] | HIF-1α expression (MDA-MB-231 [2]) | anti-apoptotic proteins (Bcl-2, Bcl-x, cIAP-1, cIAP-2, XIAP, Survivin, Livin, Clusterin) and heat shock proteins (HSP-27/-60/-70) level (MDA-MB-231 [2]; [6]) | caspase-3 cleavage (MDA-MB-231 [2]; [6]) | catalase (oxidative stress) (MDA-MB-231 [2]; [6]) | cell cycle protein expression (p21, p27) and phosphorylation of Rad-17 (MDA-MB-231 [2]; [6]) | heme oxygenase HO-1/HMOX1/HSP32 and HO-2/HMOX2 expression (MDA-MB-231 [2]; [6]) | p53 phosphorylation sites (MDA-MB-231 [2]; [6]) | pro-apoptotic proteins (Bad, Bax, SMAC/Diablo, HTRA2/Omi, cytochrome c) level (MDA-MB-231 [2]; [6]) | kinase activity of 40-selected kinases in vitro [3] | AKT-1/-2/-3/-pan phosphorylation (AKT-1/-2/-3/-pan) | p38β/p38γ/p38δ phosphorylation (p38β/p38γ/p38δ) | p38α phosphorylation (p38α) | ERK-1/-2 phosphorylation (ERK-1/-2) | JNK-1/-2/-3/-pan phosphorylation (JNK-1/-2/-3/-pan) | IC50 (MDA-MB-231 [4]) | also measured
Cc1ccc(-c2nc3ccccc3[nH]2)cc1NC(=S)NC(=O)c1ccc2c(c1)OCCO2 [NRPa-47, N-[5-(1H-benzimidazol-2-yl)-2-methylphenyl]-N′-(2,3-dihydro-1,4-benzodioxin-6-ylcarbonyl)thiourea] | affected | dephosphorylated | dephosphorylated | remained unchanged | increase in phosphorylation | inhibit HIF-1α expression | significantly reduced | induction | catalase induction | reduction | both reduced | inhibited | rapid decrease | None of these were significantly affected | up-regulated | no significant variation | significantly decreased | significant hyper-phosphorylations | significant hyper-phosphorylations | 600 nM | p70S6K phosphorylation [1]: up-regulated; HIF-1α mRNA expression (HIF-1α mRNA): reduced; VEGF-A165/NRP-1 binding (VEGF-A165/NRP-1): inhibited VEGF-A165/NRP-1 binding; VEGF-A165 mRNA expression (VEGF-A165 mRNA): reduced
O=C(NC(=S)Nc1cccc(-c2nc3ccccc3[nH]2)c1)c1ccc2c(c1)OCCO2 [NRPa-48, N-[3-(1H-benzimidazol-2-yl)phenyl]-N′-(2,3-dihydro-1,4-benzodioxin-6-ylcarbonyl)thiourea] | inhibited in a time dependent manner | inhibited in a time dependent manner | inhibited in a time dependent manner | inhibited in a time dependent manner | inhibited in a time dependent manner | inhibit HIF-1α expression | down-modulated | induction | high level of catalase | reduction | both reduced | inhibited | significantly decreased | None of these were significantly affected | inhibited from 10 minutes until 60 minutes | significantly inhibited | significantly inhibited | significantly inhibited | significantly inhibited | 400 nM | PON-2 level (MDA-MB-231 [2]; [6]): remained unchanged; body weight of treated animals ([5]; 50 mg/kg by force-feeding, three times a week): did not show any loss of weight; treated mice alive at the end of treatment ([5]; 50 mg/kg force-feeding): 62%; tumor size reduction compared to the reference group ([5]; 50 mg/kg force-feeding, Day-38 (21 days after starting treatment)): approximately 29%; tumor size reduction ([5]; 50 mg/kg force-feeding, Day-45): 34%; median survival ([5]; 50 mg/kg force-feeding, control group 35 days): over 56 days
